Reference: patent publication US7405214B2, “Nucleoside derivatives and therapeutic use thereof” (Rexahn Corporation, priority 2004, dated 2008)

How the values were obtained:
MDA-MB-231 (breast) = experiment: SRB cell growth inhibition assay, MDA-MB-231; type: cell-based; conditions: Homo sapiens, MDA-MB-231, 96 hours
Description: (§1) Cancer cell lines to determine the effect of nucleoside compounds were obtained from the following sources: Human OVCAR-3 (ovary), MCF-7 (breast, hormone-dependent), MDA-MB-231 (breast), HeLa (cervix), PC3 (prostate), LNCap (prostate), HepG2 (liver), A549 (lung), NCI-H226 (lung), HT-29 (colon), HCT116 (colon), SK-MEL-28 (melanoma) and PANC-1 (pancreas) from the American Type Culture Collection (ATCC) (Manassas, Va.); U251 (brain) from Riken (Japan); MKN-45 (stomach) from DSMZ (Germany); UMRC2 (kidney) from the United States National Cancer Institute (Bethesda, Md.). […]
(§2) The growth inhibition assay of RX-3117 against 16 human tumor cell lines was performed using the Sulforhodamine B (“SRB”) method (Skehan et al., J. National Cancer Institute, 82: 1107-1112 (1990)). […] After 5 minutes agitation in 10 mM Tris solution, the absorbance of each well was measured at 530 nm using Benchmark Plus Microplate reader (Bio-Rad Laboratories, Hercules, Calif.).
(§3) To translate the OD530 values into the number of live cells in each well, the OD530 values were compared to those on standard OD530—versus—cell number curves generated for each cell line. The percent survival was calculated using the formula: % Survival=live cell number[test]/live cell number[control]×100
(§4) The IC50 values were calculated by non-linear regression analysis.

HeLa (cervix) = experiment: SRB cell growth inhibition assay, HeLa; type: cell-based; conditions: Homo sapiens, 96 hours
Description: as §1, §2, §3, §4

SK-MEL-28 (melanoma) = experiment: SRB cell growth inhibition assay, SK-MEL-28; type: cell-based; conditions: Homo sapiens, SK-MEL-28, 96 hours
Description: as §1, §2, §3, §4

HCT116 (colon) = experiment: SRB cell growth inhibition assay, HCT116; type: cell-based; conditions: Homo sapiens, HCT-116, HCT116, 96 hours
Description: as §1, §2, §3, §4

[1] = system: MCF-7 (breast, hormone-dependent); experiment: SRB cell growth inhibition assay, MCF-7; type: cell-based; conditions: Homo sapiens, MCF7, MCF-7, 96 hours
Description: as §1, §2, §3, §4

MKN-45 (stomach) = experiment: SRB cell growth inhibition assay, MKN-45; type: cell-based; conditions: Homo sapiens, MKN-45, 96 hours
Description: as §1, §2, §3, §4

NCI-H226 (lung) = experiment: SRB cell growth inhibition assay, NCI-H226; type: cell-based; conditions: Homo sapiens, NCI-H226, 96 hours
Description: as §1, §2, §3, §4

HT-29 (colon) = experiment: SRB cell growth inhibition assay, HT-29; type: cell-based; conditions: Homo sapiens, HT-29, 96 hours
Description: as §1, §2, §3, §4

U251 (brain) = experiment: SRB cell growth inhibition assay, U251; type: cell-based; conditions: Homo sapiens, U-251, U251, 96 hours
Description: as §1, §2, §3, §4

HepG2 (liver) = experiment: SRB cell growth inhibition assay, HepG2; type: cell-based; conditions: Homo sapiens, HepG2, 96 hours
Description: as §1, §2, §3, §4

UMRC2 (kidney) = experiment: SRB cell growth inhibition assay, UMRC2; type: cell-based; conditions: Homo sapiens, UMRC2, 96 hours
Description: as §1, §2, §3, §4

PC3 (prostate) = experiment: SRB cell growth inhibition assay, PC3; type: cell-based; conditions: Homo sapiens, PC3, 96 hours
Description: as §1, §2, §3, §4

LnCap (prostate) = experiment: SRB cell growth inhibition assay, LnCap; type: cell-based; conditions: Homo sapiens, 96 hours
Description: as §1, §2, §3, §4

A549 (lung) = experiment: SRB cell growth inhibition assay, A549; type: cell-based; conditions: Homo sapiens, A549, 96 hours
Description: as §1, §2, §3, §4

[2] = system: HCT116 human colon carcinoma xenografts; experiment: Xenograft study in nude mice; type: in vivo; conditions: intraperitoneal, three times per week day 5 to day 37; for tumor volume compared to the controls: after day 37
Method: In order to observe the inhibition of growth of tumor in an animal model, an […] xenograft study of nude mice was conducted utilizing RX-3117. Suitable human cancer cell lines are those that have been tested already for inhibition of cancer cell growth, and particularly preferred was colon carcinoma HCT116. The antitumor efficacy of RX-3117 was evaluated against subcutaneously injected tumor xenografts in nude mice and tumor volume was measured after the treatment of RX-3117.
HCT116 cell suspension (2×10^6 cells in 0.1 ml of RPMI) was injected subcutaneously into the right flank of six-week-old male athymic mice (BALB/c nu/nu) on day 0. A sufficient number of mice were injected with HCT116 cell suspension so that tumors in a volume range as narrow as possible were selected for the trial on the day of treatment initiation. Animals with tumors in the proper size range were assigned to various treatment groups. RX-3117 was dissolved in 10% DMSO in PBS and solvent alone served as control. All study medications (control, RX-3117: 2 mg/kg/day, RX-3117: 10 mg/kg/day) were given by intraperitoneal injections three times per week starting from day 5 and ending on day 37. To quantify tumor growth, three perpendicular diameters of the tumors were measured with calipers every 3-5 days, and the body weight of the mice was monitored for toxicity. The tumor volume was calculated using the formula: tumor volume (mm^3)=(width)×(length)×(height)×π/6.

PANC-1 (pancreas) = experiment: SRB cell growth inhibition assay, PANC-1; type: cell-based; conditions: Homo sapiens, PANC-1, 96 hours
Description: as §1, §2, §3, §4

OVCAR-3 (ovary) = experiment: SRB cell growth inhibition assay, OVCAR-3; type: cell-based; conditions: Homo sapiens, OVCAR-3, 96 hours
Description: as §1, §2, §3, §4

Nc1ccn([C@@H]2C(F)=C(CO)[C@@H](O)[C@H]2O)c(=O)n1 [RX-3117, (1S,4R,5S)-4-Amino-1-(2-fluoro-4,5-dihydroxy-3-hydroxymethyl-cyclopent-2-enyl)-1H-pyrimidin-2-one]
IC50 (MDA-MB-231 (breast)): 180 nM | IC50 (HeLa (cervix)): 1350 nM | IC50 (SK-MEL-28 (melanoma)): 1380 nM | IC50 (HCT116 (colon)): 190 nM | IC50 [1]: 340 nM | IC50 (MKN-45 (stomach)): 340 nM | IC50 (NCI-H226 (lung)): 250 nM | IC50 (HT-29 (colon)): 280 nM | IC50 (U251 (brain)): 830 nM | IC50 (HepG2 (liver)): 790 nM | IC50 (UMRC2 (kidney)): 830 nM | IC50 (PC3 (prostate)): 630 nM | IC50 (LnCap (prostate)): 2670 nM | IC50 (A549 (lung)): 500 nM | tumor volume compared to the controls ([2]; 2 mg/kg/day): significantly reduced | tumor volume compared to the controls ([2]; 10 mg/kg/day): significantly reduced | body weight fluctuations ([2]; 2 and 10 mg/kg/day): no more than 1 g | IC50 (PANC-1 (pancreas)): 620 nM | IC50 (OVCAR-3 (ovary)): 800 nM
